Patent publication US20090232899A1, “Mucoadhesive nanocomposite delivery system” (priority 2004, published 2009)

Experiments:
[1] = low pH, simulated gastric fluid; cited from earlier work

Description for NIH3T3 fibroblast cells: The NIH3T3 fibroblast cells were used for cytotoxicity testing by methyl thiazol-2-YL-2,5-diphenyl tetrazolium bromide (MTT) staining. After seven days, the cell-containing samples were rinsed with serum-free media to remove the unattached cells and were transferred to a new plate. Then, 250 μl MTT solution was added to each sample and incubated for 4 hours to induce MTT formazan formation. Purple formazan was extracted with dimethyl sulfoxide (DMSO), and was used for optical density (OD) measurement with a Thermomax ELISA reader at a wavelength of 540 nm with DMSO as a blank.

Row | Molecule | Stability under the testing conditions, compared with amoxicillin [1] | Viability of fibroblasts, ratio (%) of absorbance of sample group to group without treatment (NT) (NIH3T3 fibroblast cells) [%]
1 | Cc1ncc([N+](=O)[O-])n1CCO [Metronidazole] | greater stability | –
2 | Chitosan | – | 90 ± 9
